These results are taken from PMC8881610 (Nature Communications, 2022).

The target of experiment [1] is T1, GLP-1R (Homo sapiens, UniProt P43220). Kind of experiment: β-arrestin 2 recruitment (BRET). In kind it is cell-based. Set-up: expressed in transfected cells; host or cells: HEK293T. To be noted: GLP-1R WT, HEK293T; for Emax: HEK-293T. The protocol: HEK293T cells (3.2 × 10^6 cells/10 cm plate) were grown for 24 h before transiently transfection with 15 μg plasmid containing GIPR, GLP-1R or GCGR tagged with Rluc8 and β-arrestin 2 with a Venus-tag at the N terminus at a ratio of 1:9 by Lipofectamine 3000 transfection reagent. After cells were grown for 24 h, transiently transfected cells were then seeded onto poly-D-lysine coated 96-well culture plates (50,000 cells/well) in DMEM with 10% FBS. Cells were grown for 20 h before incubation in assay buffer (HBSS supplemented with 10 mM HEPES, 0.1% BSA or 0.1% casein, pH 7.4) for 30 min at 37 °C. Coelentrazine-h (Yeasen Biotech) was added to a final concentration of 5 μM for 5 min before bioluminescence resonance energy transfer (BRET) readings were made using an EnVision plate reader (PerkinElmer). BRET baseline measurements were collected for 15 cycles prior to ligand addition. After which, BRET was measured for 55 cycles.
T1 sequence (P43220 24-463): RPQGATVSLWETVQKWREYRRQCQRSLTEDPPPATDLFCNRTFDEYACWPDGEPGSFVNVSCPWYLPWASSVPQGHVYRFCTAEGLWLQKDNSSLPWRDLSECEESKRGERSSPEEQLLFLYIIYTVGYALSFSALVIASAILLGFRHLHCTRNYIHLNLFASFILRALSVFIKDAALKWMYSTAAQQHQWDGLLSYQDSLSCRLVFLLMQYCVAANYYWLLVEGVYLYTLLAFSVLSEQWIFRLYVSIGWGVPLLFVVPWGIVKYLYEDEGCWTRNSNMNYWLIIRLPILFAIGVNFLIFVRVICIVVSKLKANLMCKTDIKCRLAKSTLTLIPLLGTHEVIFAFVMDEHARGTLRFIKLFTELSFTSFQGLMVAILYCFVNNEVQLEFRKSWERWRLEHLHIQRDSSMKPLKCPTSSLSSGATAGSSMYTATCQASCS
(In general: Arrestin recruitment assays detect the binding of arrestin to an activated receptor.)

Experiment [2] concerns the target T1, GLP-1R. Kind of experiment: cAMP accumulation assay, GLP-1R WT, mutant or modified constructs. In kind it is cell-based. Also on record: Flag; expressed in transfected cells; host or cells: HEK293T. To be noted: for EC50 / Emax: HEK293T; for Emax: HEK-293T. The protocol: (§1) Human embryonic kidney 293 cells containing SV40 large T-antigen (HEK293T) were cultured in DMEM (Gibco) supplemented with 10% (v/v) fetal bovine serum (FBS, Gibco), 1 mM sodium pyruvate (Gibco) and 100 units/mL penicillin and 100 μg/mL streptomycin at 37 °C in 5% CO2. Chinese hamster ovary (CHO-K1) cells were cultured in F-12 (Gibco) containing 10% FBS, 100 units/mL penicillin and 100 μg/mL streptomycin at 37 °C in 5% CO2. For cAMP and receptor expression assays, HEK293T cells were seeded into 6-well cell culture plates at a density of 7 × 10^5 cells per well. After overnight incubation, cells were transfected with GIPR, GLP-1R or GCGR construct using Lipofectamine 2000 or Lipofectamine 3000 transfection reagent (Invitrogen). For whole-cell binding assay, CHO-K1 cells were seeded into 96-well fibronectin-treated cell culture plates at a density of 3 × 10^4 cells per well. After overnight incubation, cells were transfected with GIPR, GLP-1R or GCGR construct using Lipofectamine 2000 transfection reagent (Invitrogen). Following 24 h culturing, the transfected cells were ready for use.
The human GLP-1R was modified with its native signal sequence (M1-P23) replaced by the HA signal peptide to facilitate receptor expression. To obtain a GLP-1R–Gs complex with good homogeneity and stability, we used the NanoBiT tethering strategy, in which the C terminus of GLP-1R was directly attached to LgBiT subunit followed by a TEV protease cleavage site and a double MBP tag. […] The constructs were cloned into both pcDNA3.1 and pFastBac vectors for functional assays in mammalian cells and protein expression in insect cells, respectively. Other constructs including the full-length and various mutants of human GLP-1R were cloned into pcDNA3.1 vector for cAMP accumulation and whole-cell binding assays.
For GIPR, GLP-1R and GCGR, multi-targeting agonist stimulated cAMP accumulation was measured by a LANCE Ultra cAMP kit (PerkinElmer). After 24 h culture, the transfected cells were seeded into 384-well microtiter plates at a density of 3,000 cells per well in HBSS supplemented with 5 mM HEPES, 0.1% (w/v) BSA or 0.1% (w/v) casein and 0.5 mM 3-isobutyl-1-methylxanthine. The cells were stimulated with different concentrations of peptide agonists for 40 min at RT. Eu-cAMP tracer and ULight^TM-anti-cAMP were then diluted by cAMP detection buffer and added to the plates separately to terminate the reaction. Plates were incubated at RT for 1 h and the fluorescence intensity measured at 620 nm and […] by an EnVision multilabel plate reader (PerkinElmer).
On the technique in general: cAMP levels reflect the balance of adenylyl cyclase and phosphodiesterase activity.

Experiment [3] concerns the target GCGR (Homo sapiens, UniProt P47871). Kind of experiment: Whole-cell binding assay, competition with 125I-GCG. Set-up: V5 (C); 6×His (C); expressed in transfected cells; host or cells: CHO-K1. To be noted: for binding Span / binding pIC50: GCGR WT, CHO-K1. On the procedure:
as §1
For GLP-1R and GCGR, CHO-K1 cells (30,000 cells/well) were seeded into Isoplate-96 plates and incubated for 24 h at 37 °C in 5% CO2. The WT or mutant constructs were transiently transfected using Lipofectamine 2000 transfection reagent as previous described. They were then washed twice using F-12 with 0.1% BSA or 0.1% casein, 33 mM HEPES, and incubated for 2 h at 37 °C. […] Cells were washed three times with ice-cold PBS and lysed in PBS with 1% Triton X-100, 20 mM Tris-HCl. After addition of scintillation cocktail (PerkinElmer), radioactivity (CPM) was counted on a MicroBeta^2 microplate counter (PerkinElmer). Data were normalized to the WT response and analyzed using three-parameter logistic equation.

[4] abbreviates: GLP-1R WT, 0.1% BSA, read-out: cAMP accumulation pEC50 (converted).
Setting [5] is: GLP-1R WT, 0.1% BSA, read-out: cAMP accumulation Emax.
The mark [6] stands for this setting: GLP-1R WT, 0.1% casein, read-out: cAMP accumulation Emax.

Where a SMILES comes first, the peptide text is derived from it. [ ]: non-standard residue; d: D form. Aib = CC(C)(N)C(=O)O

GCGR, sequence (P47871 26-477): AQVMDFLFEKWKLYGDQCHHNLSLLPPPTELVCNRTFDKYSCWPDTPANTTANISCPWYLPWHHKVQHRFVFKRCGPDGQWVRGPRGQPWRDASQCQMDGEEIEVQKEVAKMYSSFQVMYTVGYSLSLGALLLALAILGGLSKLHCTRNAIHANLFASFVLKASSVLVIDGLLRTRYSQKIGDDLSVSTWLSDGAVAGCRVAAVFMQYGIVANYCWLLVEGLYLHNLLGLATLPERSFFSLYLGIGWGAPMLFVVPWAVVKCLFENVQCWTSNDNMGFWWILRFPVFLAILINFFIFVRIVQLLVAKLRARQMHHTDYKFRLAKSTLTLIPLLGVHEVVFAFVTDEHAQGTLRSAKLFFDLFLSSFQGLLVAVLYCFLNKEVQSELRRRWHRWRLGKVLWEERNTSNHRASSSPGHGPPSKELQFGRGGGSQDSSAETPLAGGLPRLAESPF

The term Emax denotes the greatest response seen or fitted, relative to the assay's reference. `CC[C@H](C)[C@H](NC(=O)[C@H](CC(C)C)NC(=O)[C@H](Cc1c[nH]c2ccccc12)NC(=O)[C@H](CCC(N)=O)NC(=O)[C@@H](NC(=O)[C@H](Cc1ccccc1)NC(=O)[C@H](C)NC(=O)[C@H](CCCCN)NC(=O)[C@H](CCC(N)=O)NC(=O)[C@H](C)NC(=O)[C@@H](NC(=O)[C@H](CCCCN)NC(=O)[C@H](CC(=O)O)NC(=O)[C@H](CC(C)C)NC(=O)C(C)(C)NC(=O)[C@@H](NC(=O)[C@H](CO)NC(=O)[C@H](Cc1ccc(O)cc1)NC(=O)[C@H](CC(=O)O)NC(=O)[C@H](CO)NC(=O)[C@@H](NC(=O)[C@H](Cc1ccccc1)NC(=O)[C@@H](NC(=O)CNC(=O)[C@H](CCC(=O)O)NC(=O)C(C)(C)NC(=O)[C@@H](N)Cc1ccc(O)cc1)[C@@H](C)O)[C@@H](C)O)[C@@H](C)CC)[C@@H](C)CC)C(C)C)C(=O)N[C@@H](C)C(=O)NCC(=O)NCC(=O)N1CCC[C@H]1C(=O)N[C@@H](CO)C(=O)N[C@@H](CO)C(=O)NCC(=O)N[C@@H](C)C(=O)N1CCC[C@H]1C(=O)N1CCC[C@H]1C(=O)N1CCC[C@H]1C(=O)N[C@@H](CO)C(N)=O` [Non-acylated tirzepatide]: the EC50 in experiment [1] (0.1% casein, read-out: β-arrestin 2 recruitment pEC50 (converted)) was 27500 pM; in experiment [2] (setting [4]) it was 4.68 pM; in experiment [2] (GLP-1R, effect of tirzepatide acylation, read-out: cAMP pEC50 (converted)), 7.94 pM. For the same compound, the Emax worked out at 36.6 ± 0.52% in experiment [1] (0.1% BSA); 40.77 ± 0.37% in experiment [1] (0.1% casein); 99.1 ± 1.65% in experiment [2] (setting [5]); 98.76 ± 0.97% in experiment [2] (setting [6]); 100 ± 0.88% in experiment [2] (GLP-1R, effect of tirzepatide acylation, read-out: cAMP Emax).

On to `CC(C)C[C@H](NC(=O)[C@H](CC(C)C)NC(=O)[C@H](Cc1c[nH]c2ccccc12)NC(=O)[C@H](CCC(N)=O)NC(=O)[C@@H](NC(=O)[C@H](Cc1ccccc1)NC(=O)[C@H](CC(=O)O)NC(=O)[C@H](CCC(N)=O)NC(=O)[C@H](C)NC(=O)[C@H](C)NC(=O)[C@H](CCCNC(=N)N)NC(=O)[C@H](CCC(=O)O)NC(=O)[C@H](CC(=O)O)NC(=O)[C@H](CC(C)C)NC(=O)[C@H](Cc1ccc(O)cc1)NC(=O)[C@H](CCCCN)NC(=O)[C@H](CO)NC(=O)[C@H](CCCCN)NC(=O)[C@H](CC(=O)O)NC(=O)[C@H](CO)NC(=O)[C@@H](NC(=O)[C@H](Cc1ccccc1)NC(=O)[C@@H](NC(=O)CNC(=O)[C@H](CCC(N)=O)NC(=O)C(C)(C)NC(=O)[C@@H](N)Cc1c[nH]cn1)[C@@H](C)O)[C@@H](C)O)C(C)C)C(=O)N[C@@H](CC(=O)O)C(=O)NCC(=O)NCC(=O)N1CCC[C@H]1C(=O)N[C@@H](CO)C(=O)N[C@@H](CO)C(=O)NCC(=O)N[C@@H](C)C(=O)N1CCC[C@H]1C(=O)N1CCC[C@H]1C(=O)N1CCC[C@H]1C(=O)N[C@@H](CO)C(N)=O` [Non-lipidated peptide 20] (H-H[Aib]QGTFTSDKSKYLDERAAQDFVQWLLDGGPSSGAPPPS-NH2; N-terminus and C-terminus assumed), for which the “binding Span” value in experiment [3] (0.1% BSA) and in experiment [3] (0.1% casein) was “N.B” in each case. Further, the “binding pIC50” value in experiment [3] (0.1% BSA) and in experiment [3] (0.1% casein) was “N.B” each time. In addition, the Emax was determined as 65.4 ± 1.04% in experiment [1] (0.1% BSA), 64.3 ± 3.97% in experiment [1] (0.1% casein), 99.7 ± 1.41% in experiment [2] (setting [5]) and 99.2 ± 1.39% in experiment [2] (setting [6]). The EC50 in experiment [2] (setting [4]) was 2.88 pM. The “influence on cAMP accumulation vs peptide 20” value in experiment [2] (GLP-1R, 0.1% BSA) is “inappreciably influenced”.

For the compound `CC[C@H](C)[C@H](NC(=O)[C@H](CC(C)C)NC(=O)[C@H](Cc1c[nH]c2ccccc12)NC(=O)[C@H](CCC(N)=O)NC(=O)[C@@H](NC(=O)[C@H](Cc1ccccc1)NC(=O)[C@H](C)NC(=O)[C@H](CCCCNC(=O)COCCOCCNC(=O)COCCOCCNC(=O)CC[C@H](NC(=O)CCCCCCCCCCCCCCCCCCC(=O)O)C(=O)O)NC(=O)[C@H](CCC(N)=O)NC(=O)[C@H](C)NC(=O)[C@@H](NC(=O)[C@H](CCCCN)NC(=O)[C@H](CC(=O)O)NC(=O)[C@H](CC(C)C)NC(=O)C(C)(C)NC(=O)[C@@H](NC(=O)[C@H](CO)NC(=O)[C@H](Cc1ccc(O)cc1)NC(=O)[C@H](CC(=O)O)NC(=O)[C@H](CO)NC(=O)[C@@H](NC(=O)[C@H](Cc1ccccc1)NC(=O)[C@@H](NC(=O)CNC(=O)[C@H](CCC(=O)O)NC(=O)C(C)(C)NC(=O)[C@@H](N)Cc1ccc(O)cc1)[C@@H](C)O)[C@@H](C)O)[C@@H](C)CC)[C@@H](C)CC)C(C)C)C(=O)N[C@@H](C)C(=O)NCC(=O)NCC(=O)N1CCC[C@H]1C(=O)N[C@@H](CO)C(=O)N[C@@H](CO)C(=O)NCC(=O)N[C@@H](C)C(=O)N1CCC[C@H]1C(=O)N1CCC[C@H]1C(=O)N1CCC[C@H]1C(=O)N[C@@H](CO)C(N)=O` [Tirzepatide], the “GCGR (pIC50 ± S.E.M.)” value in experiment [3] (Fig. 7c receptor binding profile, n = 3 in duplicate) is given as “N.B”. Besides, the Emax in experiment [2] (setting [5]) was 99.7 ± 1.5%; in experiment [2] (setting [6]) it was 99.1 ± 1.73%.
